Laboratory results reported in patent US9771369B2, “Compounds and methods for kinase modulation, and indications therefor” (Plexxikon Inc., priority 2014, dated 2017).

How the values were obtained:
[1] = target: c-kit mutant D816V (Homo sapiens (Human), UniProt P10721, D816V/DEL694-753); test: c-Kit mutant D816V biochemical assay (AlphaScreen kinase activity)
Summary of the method: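 AlphaScreen with streptavidin donor and PY30 acceptor beads read phosphotyrosine on biotin-(E4Y)10 substrate (30 nM). Enzyme: E. coli-expressed N-His c-Kit D816V, residues 551-934 lacking kinase insert 694-753. Reaction 30 min at room temperature, 10 μM ATP, 5% DMSO; IC50 fitted over 8 three-fold dilutions.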

[2] = tested on: BaF3-FL KIT D816V or BaF3-FL KIT V560G/D816V cell line; test: Cell-based assays of c-Kit mutant kinase activity (cell proliferation, ATPlite); settings: at least one of the c-kit cell assays of Example 7
Summary of the method: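 BaF3 cells dependent on transfected full-length human KIT D816V or V560G/D816V (pCI-Neo, CMV promoter) were seeded at 1×10^4 cells/well and exposed to 8-point 1:3 dilutions from 10 μM top (0.2% DMSO) for three days at 37° C. ATPlite luminescence gave cell number; IC50 from concentration-response.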

Sequence of c-kit mutant D816V (P10721 other isoform, or with tags, fused parts or gaps D816V/del 694-753): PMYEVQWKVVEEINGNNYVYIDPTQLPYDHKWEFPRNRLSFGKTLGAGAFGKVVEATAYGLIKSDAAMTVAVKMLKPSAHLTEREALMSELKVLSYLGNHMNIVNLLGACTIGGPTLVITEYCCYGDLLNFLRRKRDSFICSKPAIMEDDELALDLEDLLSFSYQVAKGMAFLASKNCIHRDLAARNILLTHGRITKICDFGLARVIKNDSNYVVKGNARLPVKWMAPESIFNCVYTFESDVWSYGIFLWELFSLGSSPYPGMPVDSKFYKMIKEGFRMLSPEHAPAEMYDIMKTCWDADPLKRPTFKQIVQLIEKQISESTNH

## CC(=O)Nc1cccc(-c2cc3c(N4CCC(c5nc(C)c(-c6ccccc6)[nH]5)CC4)ncnc3[nH]2)c1 [P-3071, N-[3-[4-[4-(4-methyl-5-phenyl-1H-imidazol-2-yl)-1-piperidyl]-7H-pyrrolo[2,3-d]pyrimidin-6-yl]phenyl]acetamide]
[1]
  IC50: 0.0001 to 1 µM
[2]
  IC50: < 10000 nM

## COc1ccc(-c2cc3c(N4CCC(c5nc(C)c(-c6ccccc6)[nH]5)CC4)ncnc3[nH]2)cn1 [P-3072, 6-(6-methoxy-3-pyridyl)-4-[4-(4-methyl-5-phenyl-1H-imidazol-2-yl)-1-piperidyl]-7H-pyrrolo[2,3-d]pyrimidine]
[1]
  IC50: 0.0001 to 1 µM
[2]
  IC50: < 10000 nM

## Cc1nn(C)cc1-c1cc2c(N3CCC(c4nc(C)c(-c5ccccc5)[nH]4)CC3)ncnc2[nH]1 [P-3073, 6-(1,3-dimethylpyrazol-4-yl)-4-[4-(4-methyl-5-phenyl-1H-imidazol-2-yl)-1-piperidyl]-7H-pyrrolo[2,3-d]pyrimidine]
[1]
  IC50: 0.0001 to 1 µM
[2]
  IC50: < 10000 nM

## Cc1ccc(-c2cc3c(N4CCC(c5nc(C)c(-c6ccccc6)[nH]5)CC4)ncnc3[nH]2)cn1 [P-3074, 4-[4-(4-methyl-5-phenyl-1H-imidazol-2-yl)-1-piperidyl]-6-(6-methyl-3-pyridyl)-7H-pyrrolo[2,3-d]pyrimidine]
[1]
  IC50: 0.0001 to 1 µM
[2]
  IC50: < 10000 nM

## CCOc1cc(-c2cc3c(N4CCC(c5nc(C)c(-c6ccccc6)[nH]5)CC4)ncnc3[nH]2)ccn1 [P-3075, 6-(2-ethoxy-4-pyridyl)-4-[4-(4-methyl-5-phenyl-1H-imidazol-2-yl)-1-piperidyl]-7H-pyrrolo[2,3-d]pyrimidine]
[1]
  IC50: 0.0001 to 1 µM
[2]
  IC50: < 10000 nM

## Cc1nc(C2CCN(c3ncnc4[nH]c(-c5ccnc(N6CCOCC6)c5)cc34)CC2)[nH]c1-c1ccccc1 [P-3076, 4-[4-[4-[4-(4-methyl-5-phenyl-1H-imidazol-2-yl)-1-piperidyl]-7H-pyrrolo[2,3-d]pyrimidin-6-yl]-2-pyridyl]morpholine]
[1]
  IC50: 0.0001 to 1 µM
[2]
  IC50: < 10000 nM

## Cc1nc(C2CCN(c3ncnc4[nH]c(-c5ccnc(N6CCC(C)CC6)c5)cc34)CC2)[nH]c1-c1ccccc1 [P-3077, 4-[4-(4-methyl-5-phenyl-1H-imidazol-2-yl)-1-piperidyl]-6-[2-(4-methyl-1-piperidyl)-4-pyridyl]-7H-pyrrolo[2,3-d]pyrimidine]
[1]
  IC50: 0.0001 to 1 µM
[2]
  IC50: < 10000 nM

## Cc1nc(C2CCN(c3ncnc4[nH]c(-c5ccnc(OC(C)C)c5)cc34)CC2)[nH]c1-c1ccccc1 [P-3078, 6-(2-isopropoxy-4-pyridyl)-4-[4-(4-methyl-5-phenyl-1H-imidazol-2-yl)-1-piperidyl]-7H-pyrrolo[2,3-d]pyrimidine]
[1]
  IC50: 0.0001 to 1 µM
[2]
  IC50: < 10000 nM

## Cc1nc(C2CCN(c3ncnc4[nH]c(-c5ccnc(N6CCCC6)c5)cc34)CC2)[nH]c1-c1ccccc1 [P-3079, 4-[4-(4-methyl-5-phenyl-1H-imidazol-2-yl)-1-piperidyl]-6-(2-pyrrolidin-1-yl-4-pyridyl)-7H-pyrrolo[2,3-d]pyrimidine]
[1]
  IC50: 0.0001 to 1 µM
[2]
  IC50: < 10000 nM

## Cc1nc(C2CCN(c3ncnc4[nH]c(-c5cccc(OC(F)(F)F)c5)cc34)CC2)[nH]c1-c1ccccc1 [P-3080, 4-[4-(4-methyl-5-phenyl-1H-imidazol-2-yl)-1-piperidyl]-6-[3-(trifluoromethoxy)phenyl]-7H-pyrrolo[2,3-d]pyrimidine]
[1]
  IC50: 0.0001 to 1 µM
[2]
  IC50: < 10000 nM

## Cc1nc(C2CCN(c3ncnc4[nH]c(-c5cccc(F)c5)cc34)CC2)[nH]c1-c1ccccc1 [P-3081, 6-(3-fluorophenyl)-4-[4-(4-methyl-5-phenyl-1H-imidazol-2-yl)-1-piperidyl]-7H-pyrrolo[2,3-d]pyrimidine]
[1]
  IC50: 0.0001 to 1 µM
[2]
  IC50: < 10000 nM

## Cc1nc(C2CCN(c3ncnc4[nH]c(-c5cccc(NS(C)(=O)=O)c5)cc34)CC2)[nH]c1-c1ccccc1 [P-3083, N-[3-[4-[4-(4-methyl-5-phenyl-1H-imidazol-2-yl)-1-piperidyl]-7H-pyrrolo[2,3-d]pyrimidin-6-yl]phenyl]methane sulfonamide]
[1]
  IC50: 0.0001 to 1 µM
[2]
  IC50: < 10000 nM

## Cc1nc(C2CCN(c3ncnc4[nH]c(-c5ccc(F)cc5)cc34)CC2)[nH]c1-c1ccc2c(c1)OCCO2 [P-3084, 4-[4-[5-(2,3-dihydro-1,4-benzodioxin-6-yl)-4-methyl-1H-imidazol-2-yl]-1-piperidyl]-6-(4-fluorophenyl)-7H-pyrrolo[2,3-d]pyrimidine]
[1]
  IC50: 0.0001 to 1 µM
[2]
  IC50: < 10000 nM

## Cc1nc(C2CCN(c3ncnc4[nH]c(-c5ccc(F)cc5)cc34)CC2)[nH]c1-c1ccc(OC(F)(F)F)cc1 [P-3085, 6-(4-fluorophenyl)-4-[4-[4-methyl-5-[4-(trifluoromethoxy)phenyl]-1H-imidazol-2-yl]-1-piperidyl]-7H-pyrrolo[2,3-d]pyrimidine]
[1]
  IC50: 0.0001 to 1 µM
[2]
  IC50: < 10000 nM

## Cc1nc(C2CCN(c3ncnc4[nH]c(-c5ccc(C#N)cc5)cc34)CC2)[nH]c1-c1ccc(OC(F)(F)F)cc1 [P-3086, 4-[4-[4-[4-methyl-5-[4-(trifluoromethoxy)phenyl]-1H-imidazol-2-yl]-1-piperidyl]-7H-pyrrolo[2,3-d]pyrimidin-6-yl]benzonitrile]
[1]
  IC50: 0.0001 to 1 µM
[2]
  IC50: < 10000 nM

## COc1cc(-c2cc3c(N4CCC(c5nc(C)c(-c6ccc(OC(F)(F)F)cc6)[nH]5)CC4)ncnc3[nH]2)ccn1 [P-3087, 6-(2-methoxy-4-pyridyl)-4-[4-[4-methyl-5-[4-(trifluoromethoxy)phenyl]-1H-imidazol-2-yl]-1-piperidyl]-7H-pyrrolo[2,3-d]pyrimidine]
[1]
  IC50: 0.0001 to 1 µM
[2]
  IC50: < 10000 nM

## COc1cc(-c2cc3c(N4CCC(c5nc(C)c(-c6ccc(C)cc6)[nH]5)CC4)ncnc3[nH]2)ccn1 [P-3088, 6-(2-methoxy-4-pyridyl)-4-[4-[4-methyl-5-(p-tolyl)-1H-imidazol-2-yl]-1-piperidyl]-7H-pyrrolo[2,3-d]pyrimidine]
[1]
  IC50: 0.0001 to 1 µM
[2]
  IC50: < 10000 nM

## COc1ccc(-c2[nH]c(C3(C)CCN(c4ncnc5[nH]c(-c6ccc(C#N)nc6)cc45)CC3)nc2C)cc1C [P-3250, 5-[4-[4-[5-(4-methoxy-3-methyl-phenyl)-4-methyl-1H-imidazol-2-yl]-4-methyl-1-piperidyl]-7H-pyrrolo[2,3-d]pyrimidin-6-yl]pyridine-2-carbonitrile]
[1]
  IC50: 0.0001 to 1 µM
[2]
  IC50: < 10000 nM

## CCOc1ccc(-c2[nH]c(C3(C)CCN(c4ncnc5[nH]c(-c6ccc(C#N)nc6)cc45)CC3)nc2C)cc1 [P-3251, 5-[4-[4-[5-(4-ethoxyphenyl)-4-methyl-1H-imidazol-2-yl]-4-methyl-1-piperidyl]-7H-pyrrolo[2,3-d]pyrimidin-6-yl]pyridine-2-carbonitrile]
[1]
  IC50: 0.0001 to 1 µM
[2]
  IC50: < 10000 nM

## Cc1nc(C2(C)CCN(c3ncnc4[nH]c(-c5ccc(NS(C)(=O)=O)cc5)cc34)CC2)[nH]c1-c1ccc(C(F)F)cc1 [P-3252, N-[4-[4-[4-[5-[4-(difluoromethyl)phenyl]-4-methyl-1H-imidazol-2-yl]-4-methyl-1-piperidyl]-7H-pyrrolo[2,3-d]pyrimidin-6-yl]phenyl]methanesulfonamide]
[1]
  IC50: 0.0001 to 1 µM
[2]
  IC50: < 10000 nM

## Cc1nc(C2(C)CCN(c3ncnc4[nH]c(-c5ccc(C(N)=O)cc5)cc34)CC2)[nH]c1-c1ccc(OC(F)F)cc1 [P-3253, 4-[4-[4-[5-[4-(difluoromethoxy)phenyl]-4-methyl-1H-imidazol-2-yl]-4-methyl-1-piperidyl]-7H-pyrrolo[2,3-d]pyrimidin-6-yl]benzamide]
[1]
  IC50: 0.0001 to 1 µM
[2]
  IC50: < 10000 nM
